The numbers were not newly measured in patent US20260007632A1, “FORMULATIONS OF DOCETAXEL” (Zhuhai Beihai Biotech Co., Ltd., priority 2020, published 2026), which cites them from elsewhere.

In one data set the test system is microtubule. The note with it: relative to paclitaxel.

On to `CC(=O)Oc1ccccc1C(=O)O` [aspirin], for which, under “at 25° C.”, the “volume of ethanol required to dissolve 1 g” value is 5 mL and the “volume of water required to dissolve 1 g” value was 300 mL.

Regarding `CC(=O)O[C@@]12CO[C@@H]1C[C@H](O)[C@@]1(C)C(=O)[C@H](O)C3=C(C)[C@@H](OC(=O)[C@H](O)[C@@H](NC(=O)OC(C)(C)C)c4ccccc4)C[C@@](O)([C@@H](OC(=O)c4ccccc4)[C@H]21)C3(C)C` [docetaxel], the solubility in water entry is reported as “very poor water solubility”. In the data set on microtubule, the “potency in inhibiting microtubule depolymerization” value is listed as “about twice as potent as paclitaxel”.
